Assays:
Test in all cases: Methyl transferase scintillation proximity assay
Assay type in all cases: biochemical
Settings in all cases: average of two measurements; for inhibition at 10 µM: read-out: MTases Inhibition (%)
NSD2 = target: T1, NSD2 (Homo sapiens, UniProt O96028)
T1 construct: purchased DiscoverX BROMOscan (bromodomains); SGC in-house methyltransferase panel
T1 sequence (O96028 1-1365): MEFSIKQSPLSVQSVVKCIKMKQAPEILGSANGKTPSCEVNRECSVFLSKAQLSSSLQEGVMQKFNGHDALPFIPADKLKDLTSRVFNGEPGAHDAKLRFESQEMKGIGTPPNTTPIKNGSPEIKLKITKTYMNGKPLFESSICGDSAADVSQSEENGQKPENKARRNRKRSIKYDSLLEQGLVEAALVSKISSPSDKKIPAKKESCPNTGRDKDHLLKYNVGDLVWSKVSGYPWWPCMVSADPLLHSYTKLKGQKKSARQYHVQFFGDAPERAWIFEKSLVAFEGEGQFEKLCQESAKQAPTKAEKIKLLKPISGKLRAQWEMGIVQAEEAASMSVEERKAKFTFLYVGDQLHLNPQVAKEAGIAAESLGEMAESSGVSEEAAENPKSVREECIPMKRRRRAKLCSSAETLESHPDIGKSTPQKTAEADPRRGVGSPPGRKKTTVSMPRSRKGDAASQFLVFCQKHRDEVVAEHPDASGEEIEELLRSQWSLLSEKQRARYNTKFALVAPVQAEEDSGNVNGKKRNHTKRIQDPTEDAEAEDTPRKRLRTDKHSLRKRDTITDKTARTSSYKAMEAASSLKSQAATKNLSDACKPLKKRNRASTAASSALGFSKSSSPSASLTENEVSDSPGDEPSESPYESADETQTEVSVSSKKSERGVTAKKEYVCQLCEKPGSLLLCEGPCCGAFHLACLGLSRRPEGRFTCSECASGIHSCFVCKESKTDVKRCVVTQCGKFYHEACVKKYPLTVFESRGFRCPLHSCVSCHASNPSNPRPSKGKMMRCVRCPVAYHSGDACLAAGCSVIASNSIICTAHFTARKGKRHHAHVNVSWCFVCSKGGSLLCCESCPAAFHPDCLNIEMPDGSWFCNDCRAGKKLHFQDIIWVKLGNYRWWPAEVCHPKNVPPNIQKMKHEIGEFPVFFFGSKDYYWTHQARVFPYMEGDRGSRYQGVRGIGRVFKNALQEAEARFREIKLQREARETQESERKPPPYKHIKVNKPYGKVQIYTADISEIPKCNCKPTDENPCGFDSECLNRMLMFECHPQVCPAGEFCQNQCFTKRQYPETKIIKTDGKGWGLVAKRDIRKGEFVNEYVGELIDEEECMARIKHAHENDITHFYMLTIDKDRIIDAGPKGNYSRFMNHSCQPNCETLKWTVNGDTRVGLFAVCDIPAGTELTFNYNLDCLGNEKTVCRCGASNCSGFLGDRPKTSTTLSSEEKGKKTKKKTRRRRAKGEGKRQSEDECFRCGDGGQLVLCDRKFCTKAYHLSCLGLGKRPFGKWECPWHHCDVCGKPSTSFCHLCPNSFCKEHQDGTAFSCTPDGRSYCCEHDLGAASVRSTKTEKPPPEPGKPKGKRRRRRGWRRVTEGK
Method: (§1) Assays measuring lysine and arginine methyl transferase activity have been described in Scheer et al.. A radioactivity-based scintillation proximity assay was used to monitor incorporation of a tritium-labeled methyl group into the biotinylated substrate of the methyl transferase. A 10-μl reaction containing ^3H-SAM and substrate at concentrations close to the apparent Km values for each enzyme was prepared. The reactions were quenched with 10 μl of 7.5 M guanidine hydrochloride; 180 μl of 20 mM Tris buffer (pH 8.0) were added; and the mixture was transferred to a 96-well FlashPlate and incubated for 1 h. The counts per minute (CPM) was measured on a TopCount plate reader. The CPM in the absence of compound or enzyme was defined as 100% activity and background (0%), respectively, for each dataset.

PRC2-EZH1 = target: T2, PRC2-EZH1 (Homo sapiens, UniProt Q92800)
T2 construct: purchased DiscoverX BROMOscan (bromodomains); SGC in-house methyltransferase panel
Method: as §1

PRC2-EZH2 = target: T3, PRC2-EZH2 (Homo sapiens, UniProt Q15910)
T3 construct: purchased DiscoverX BROMOscan (bromodomains); SGC in-house methyltransferase panel
Method: as §1

SETD2 = target: T4, SETD2 (Homo sapiens, UniProt Q9BYW2)
T4 construct: purchased DiscoverX BROMOscan (bromodomains); SGC in-house methyltransferase panel
Method: as §1

SETD7 = target: T5, SETD7 (Homo sapiens, UniProt Q8WTS6)
T5 construct: purchased DiscoverX BROMOscan (bromodomains); SGC in-house methyltransferase panel
T5 sequence (Q8WTS6 1-366): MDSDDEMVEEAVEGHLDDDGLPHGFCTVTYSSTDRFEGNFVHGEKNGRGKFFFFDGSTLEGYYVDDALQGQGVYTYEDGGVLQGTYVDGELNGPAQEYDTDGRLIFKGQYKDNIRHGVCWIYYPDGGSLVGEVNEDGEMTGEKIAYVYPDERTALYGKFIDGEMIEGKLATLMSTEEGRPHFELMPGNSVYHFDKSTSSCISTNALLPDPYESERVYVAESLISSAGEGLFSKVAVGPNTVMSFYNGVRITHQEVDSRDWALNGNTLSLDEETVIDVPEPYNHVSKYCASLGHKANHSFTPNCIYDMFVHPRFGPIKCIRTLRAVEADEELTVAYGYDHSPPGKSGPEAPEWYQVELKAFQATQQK
Method: as §1

SMYD2 = target: T6, SMYD2 (Homo sapiens, UniProt Q9NRG4)
T6 construct: purchased DiscoverX BROMOscan (bromodomains); SGC in-house methyltransferase panel
Method: as §1

T2 sequence (Q92800 whole entry): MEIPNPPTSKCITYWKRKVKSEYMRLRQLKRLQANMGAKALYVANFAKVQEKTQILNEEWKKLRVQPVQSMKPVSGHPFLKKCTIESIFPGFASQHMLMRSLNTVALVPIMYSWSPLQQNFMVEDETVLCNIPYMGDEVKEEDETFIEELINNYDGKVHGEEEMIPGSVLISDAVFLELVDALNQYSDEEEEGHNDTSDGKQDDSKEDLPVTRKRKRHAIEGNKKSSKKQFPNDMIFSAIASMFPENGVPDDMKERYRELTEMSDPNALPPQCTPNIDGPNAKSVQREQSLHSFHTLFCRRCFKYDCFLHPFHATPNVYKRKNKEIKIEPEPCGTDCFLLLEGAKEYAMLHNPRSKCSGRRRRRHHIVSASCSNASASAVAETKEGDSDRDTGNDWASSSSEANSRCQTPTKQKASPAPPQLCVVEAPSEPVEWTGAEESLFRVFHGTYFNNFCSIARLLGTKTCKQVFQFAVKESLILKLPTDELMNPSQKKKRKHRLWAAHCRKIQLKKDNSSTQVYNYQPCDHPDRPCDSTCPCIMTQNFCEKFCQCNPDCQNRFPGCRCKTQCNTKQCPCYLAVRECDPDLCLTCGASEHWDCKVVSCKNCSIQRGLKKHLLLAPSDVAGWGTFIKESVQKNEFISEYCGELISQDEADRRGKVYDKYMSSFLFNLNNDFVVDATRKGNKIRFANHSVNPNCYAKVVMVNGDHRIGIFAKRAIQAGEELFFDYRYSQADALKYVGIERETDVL
T2 sequence (O75530 whole entry partner): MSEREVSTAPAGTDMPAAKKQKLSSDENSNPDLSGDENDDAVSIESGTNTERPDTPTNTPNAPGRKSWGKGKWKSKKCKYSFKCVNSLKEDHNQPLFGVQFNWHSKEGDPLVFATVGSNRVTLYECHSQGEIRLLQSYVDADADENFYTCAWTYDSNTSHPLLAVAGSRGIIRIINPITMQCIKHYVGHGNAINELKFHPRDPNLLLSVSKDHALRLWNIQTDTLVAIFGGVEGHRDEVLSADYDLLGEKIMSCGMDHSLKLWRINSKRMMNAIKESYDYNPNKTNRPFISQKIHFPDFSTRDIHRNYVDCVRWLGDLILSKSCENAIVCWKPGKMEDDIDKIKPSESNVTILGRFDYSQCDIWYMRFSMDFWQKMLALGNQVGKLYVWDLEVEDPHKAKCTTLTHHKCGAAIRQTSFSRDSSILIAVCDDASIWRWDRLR
T2 sequence (Q15022 whole entry partner): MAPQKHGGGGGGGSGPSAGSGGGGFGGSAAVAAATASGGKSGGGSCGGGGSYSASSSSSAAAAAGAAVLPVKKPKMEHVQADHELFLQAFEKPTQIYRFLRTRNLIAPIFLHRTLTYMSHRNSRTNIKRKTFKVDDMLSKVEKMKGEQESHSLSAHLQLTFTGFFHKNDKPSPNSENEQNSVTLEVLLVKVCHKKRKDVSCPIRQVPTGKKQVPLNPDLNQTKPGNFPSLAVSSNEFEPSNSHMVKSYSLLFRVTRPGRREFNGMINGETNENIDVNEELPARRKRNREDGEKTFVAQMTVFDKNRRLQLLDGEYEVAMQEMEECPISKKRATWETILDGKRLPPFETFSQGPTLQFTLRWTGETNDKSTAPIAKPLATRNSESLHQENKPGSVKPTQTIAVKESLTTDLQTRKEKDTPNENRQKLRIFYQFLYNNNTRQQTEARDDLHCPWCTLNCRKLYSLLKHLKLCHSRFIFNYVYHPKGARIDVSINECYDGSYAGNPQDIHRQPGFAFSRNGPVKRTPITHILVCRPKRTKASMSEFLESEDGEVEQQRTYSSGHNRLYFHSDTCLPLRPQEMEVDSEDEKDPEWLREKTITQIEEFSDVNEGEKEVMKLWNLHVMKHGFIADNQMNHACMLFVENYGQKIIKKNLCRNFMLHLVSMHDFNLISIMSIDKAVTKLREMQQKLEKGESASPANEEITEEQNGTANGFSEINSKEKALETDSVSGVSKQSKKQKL
T6 sequence (Q9NRG4 whole entry): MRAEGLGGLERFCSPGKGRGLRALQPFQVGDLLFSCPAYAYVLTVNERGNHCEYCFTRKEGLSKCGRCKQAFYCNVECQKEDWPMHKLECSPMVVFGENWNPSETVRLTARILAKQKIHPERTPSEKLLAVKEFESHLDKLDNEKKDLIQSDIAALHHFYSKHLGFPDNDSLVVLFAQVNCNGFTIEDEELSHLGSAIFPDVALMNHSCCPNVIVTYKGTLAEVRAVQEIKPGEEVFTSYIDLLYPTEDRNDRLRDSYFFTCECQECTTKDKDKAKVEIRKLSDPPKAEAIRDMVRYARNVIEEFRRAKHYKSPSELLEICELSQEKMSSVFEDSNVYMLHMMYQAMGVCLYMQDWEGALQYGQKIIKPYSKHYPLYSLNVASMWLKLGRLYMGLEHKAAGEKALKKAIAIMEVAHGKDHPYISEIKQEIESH
T4 sequence (Q9BYW2 whole entry): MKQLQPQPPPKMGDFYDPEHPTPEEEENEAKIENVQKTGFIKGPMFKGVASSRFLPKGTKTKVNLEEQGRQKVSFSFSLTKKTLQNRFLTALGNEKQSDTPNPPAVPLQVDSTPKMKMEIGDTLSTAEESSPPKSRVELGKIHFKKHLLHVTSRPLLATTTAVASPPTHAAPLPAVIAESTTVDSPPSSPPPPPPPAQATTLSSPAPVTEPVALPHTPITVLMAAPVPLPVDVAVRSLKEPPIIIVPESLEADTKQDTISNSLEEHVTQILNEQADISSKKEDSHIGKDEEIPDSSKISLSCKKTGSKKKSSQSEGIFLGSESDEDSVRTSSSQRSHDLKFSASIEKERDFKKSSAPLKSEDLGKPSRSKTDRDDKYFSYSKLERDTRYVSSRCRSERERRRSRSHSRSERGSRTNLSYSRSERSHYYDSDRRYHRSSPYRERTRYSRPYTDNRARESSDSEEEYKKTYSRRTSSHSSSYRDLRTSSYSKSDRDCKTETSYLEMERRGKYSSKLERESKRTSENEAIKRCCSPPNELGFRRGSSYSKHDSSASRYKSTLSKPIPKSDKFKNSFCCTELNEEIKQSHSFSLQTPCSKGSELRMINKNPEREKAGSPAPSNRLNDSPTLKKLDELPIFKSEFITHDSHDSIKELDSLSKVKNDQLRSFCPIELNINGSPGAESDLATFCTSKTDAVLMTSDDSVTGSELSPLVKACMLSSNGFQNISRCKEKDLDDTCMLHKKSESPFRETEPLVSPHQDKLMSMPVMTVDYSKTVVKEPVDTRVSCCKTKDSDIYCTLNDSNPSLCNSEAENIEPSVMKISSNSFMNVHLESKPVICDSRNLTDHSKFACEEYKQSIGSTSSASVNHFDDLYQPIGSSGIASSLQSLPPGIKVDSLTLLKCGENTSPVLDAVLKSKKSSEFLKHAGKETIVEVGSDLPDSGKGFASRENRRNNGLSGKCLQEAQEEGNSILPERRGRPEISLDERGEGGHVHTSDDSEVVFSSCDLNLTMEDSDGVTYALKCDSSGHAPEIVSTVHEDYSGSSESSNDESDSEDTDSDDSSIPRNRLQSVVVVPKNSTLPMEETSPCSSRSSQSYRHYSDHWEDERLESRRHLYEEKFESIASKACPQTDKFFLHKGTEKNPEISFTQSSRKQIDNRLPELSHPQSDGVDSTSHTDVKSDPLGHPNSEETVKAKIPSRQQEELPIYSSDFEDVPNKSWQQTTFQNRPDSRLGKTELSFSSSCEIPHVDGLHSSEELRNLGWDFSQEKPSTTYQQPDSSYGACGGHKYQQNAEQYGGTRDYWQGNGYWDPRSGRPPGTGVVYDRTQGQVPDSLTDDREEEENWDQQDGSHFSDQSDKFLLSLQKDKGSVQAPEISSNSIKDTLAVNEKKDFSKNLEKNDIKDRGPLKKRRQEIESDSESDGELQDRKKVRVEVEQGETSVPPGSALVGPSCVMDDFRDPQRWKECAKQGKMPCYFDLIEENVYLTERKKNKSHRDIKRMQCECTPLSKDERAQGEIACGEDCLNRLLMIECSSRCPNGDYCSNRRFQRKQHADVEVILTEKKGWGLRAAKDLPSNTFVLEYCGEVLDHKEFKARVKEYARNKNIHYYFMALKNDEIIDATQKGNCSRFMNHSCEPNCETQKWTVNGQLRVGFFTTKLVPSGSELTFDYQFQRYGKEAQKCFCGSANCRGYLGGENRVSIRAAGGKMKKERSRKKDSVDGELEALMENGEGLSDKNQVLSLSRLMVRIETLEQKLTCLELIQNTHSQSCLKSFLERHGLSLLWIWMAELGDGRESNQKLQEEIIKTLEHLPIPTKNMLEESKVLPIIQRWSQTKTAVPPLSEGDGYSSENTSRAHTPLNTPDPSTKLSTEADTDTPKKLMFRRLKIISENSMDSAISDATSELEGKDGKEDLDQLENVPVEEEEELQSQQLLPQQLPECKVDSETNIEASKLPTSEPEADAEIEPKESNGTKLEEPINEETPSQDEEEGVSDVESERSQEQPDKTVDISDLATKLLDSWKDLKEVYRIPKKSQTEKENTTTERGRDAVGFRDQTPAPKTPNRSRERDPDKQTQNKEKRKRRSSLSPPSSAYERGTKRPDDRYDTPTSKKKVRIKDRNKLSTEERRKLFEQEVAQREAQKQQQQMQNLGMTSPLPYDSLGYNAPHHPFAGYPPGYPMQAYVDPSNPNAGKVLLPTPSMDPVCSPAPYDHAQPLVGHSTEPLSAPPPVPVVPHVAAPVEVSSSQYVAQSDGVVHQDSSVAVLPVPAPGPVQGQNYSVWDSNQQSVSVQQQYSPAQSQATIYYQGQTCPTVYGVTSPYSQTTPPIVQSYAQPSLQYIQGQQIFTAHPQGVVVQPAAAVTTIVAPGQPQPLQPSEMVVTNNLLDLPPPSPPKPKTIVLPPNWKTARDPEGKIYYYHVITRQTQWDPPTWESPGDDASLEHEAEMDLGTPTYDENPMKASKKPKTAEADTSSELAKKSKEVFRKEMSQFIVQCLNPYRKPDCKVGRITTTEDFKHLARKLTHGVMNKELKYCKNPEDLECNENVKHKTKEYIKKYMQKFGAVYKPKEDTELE

Structure (SMILES)	inhibition at 10 µM (NSD2)	inhibition at 10 µM (PRC2-EZH1)	inhibition at 10 µM (PRC2-EZH2)	inhibition at 10 µM (SETD2)	inhibition at 10 µM (SETD7)	inhibition at 10 µM (SMYD2)	MTases Inhibition (%) (NSD2; 10µM)	MTases Inhibition (%) (PRC2-EZH1; 10µM)	MTases Inhibition (%) (PRC2-EZH2; 10µM)	MTases Inhibition (%) (SETD2; 10µM)	MTases Inhibition (%) (SETD7; 10µM)	MTases Inhibition (%) (SMYD2; 10µM)
Cc1c(NC(=O)c2cc(C(N)=O)nc3cc(F)ccc23)c(C(F)(F)F)nn1Cc1ccc(C(C)(C)C)cc1 [BAY-588]	2%	3%	3%	0%	10%	8%						
COc1cc(Cl)c(C(=O)N[C@@H](CN[C@H]2CC[C@@H](N)CC2)Cc2ccc(C#N)cc2)cc1-c1ccc(CN[C@H](C)c2ccc(C)cc2)o1 [BAY-850]	-1%	19%	3%	7%	11%	19%						
Cc1c(NC(=O)c2cc(C(N)=O)nc3cc(F)ccc23)c(C(F)(F)F)nn1Cc1ccc(C#N)cc1 [BAY-876]	0%	-4%	5%	-4%	10%	-10%						
CN1C[C@H](Nc2cnn(C)c(=O)c2Br)C[C@H](c2ccccc2)C1 [GSK4027]	15%	-1%	-5%	-1%	12%	2%						
COc1ccccc1C(=O)Nc1cc2c(cc1N1CCNC[C@H]1C)n(C)c(=O)n2C [GSK6853]							13%	1%	0%	1%	7%	-3%
CO[C@H]1CNC[C@@H](OCC2CCC(F)(F)CC2)[C@@H]1Nc1ncc(-c2cncc(C)c2)c2cc(C)c(=O)[nH]c12 [GSK8814]	24%	1%	2%	7%	7%	-2%						
Cc1nnc2c3ccccc3c(N[C@@H](C)[C@H](c3ccccc3)N(C)C)nn12 [L-Moses]	2%	5%	-4%	11%	7%	-10%						
CN(C)CCCOc1ccc(-c2cc(NCCCn3cccn3)nc(S(C)(=O)=O)n2)cc1 [TP-238]	3%	6%	3%	19%	-1%	-2%						

— paper PMC6478789, “A chemical toolbox for the study of bromodomains and epigenetic signaling” (Nature Communications, 2019)
